Test results taken from ChEMBL document CHEMBL1201862, “PubChem BioAssay data set” (2004).
Calls of active or inactive are those of the source.

Legend:
[1] = target: T1, Fatty acid synthase (Homo sapiens, UniProt P49327); test: FAS thioesterase domain inhibitors, dose response, biochemical, endpoint fluorescence intensity, uHTS hits (AID 624327); assay type: functional;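 also: fluorescence from hydrolysis of an O-methyl fluorescein acyl ester substrate by the enzyme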
[2] = target: T1, Fatty acid synthase; test: FAS thioesterase domain inhibitors, dose response, biochemical, kinetic fluorescence intensity (AID 624326); assay type: functional;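 also: rate of fluorescence rise from hydrolysis of a fluorogenic O-methyl fluorescein ester substrate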
[3] = cells; assay type: functional, cell-based
[4] = cells; assay type: functional, cell-based; remark: listed apart in the source
[5] = target: T2, Carboxy-terminal domain RNA polymerase II polypeptide A small phosphatase 1 (Homo sapiens, UniProt Q9GZU7); test: inhibitors of CTDSP1, concentration-response testing, biochemical assay, absorbance-based, actives from ultra-high-throughput screening (AID 540297); assay type: functional
T2 sequence (Q9GZU7 whole entry): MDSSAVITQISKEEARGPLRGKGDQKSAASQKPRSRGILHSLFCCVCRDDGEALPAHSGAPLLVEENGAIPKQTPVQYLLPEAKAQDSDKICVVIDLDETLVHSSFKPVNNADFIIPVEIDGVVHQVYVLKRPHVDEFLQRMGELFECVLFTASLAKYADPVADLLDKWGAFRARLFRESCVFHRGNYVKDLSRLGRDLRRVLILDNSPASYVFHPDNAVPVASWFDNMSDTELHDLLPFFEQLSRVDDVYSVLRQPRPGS

[6] = target: Cytochrome P450 2C9 (Homo sapiens, UniProt P11712)
[7] = target: Cytochrome P450 2D6 (Homo sapiens, UniProt P10635);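 also: CYP2D6 member of a cytochrome P450 panel assay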
[8] = target: T3, Cytochrome P450 1A2 (Homo sapiens, UniProt P05177);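 also: PubChem cytochrome P450 panel assay, CYP1A2 panel member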
T3 sequence (P05177 whole entry): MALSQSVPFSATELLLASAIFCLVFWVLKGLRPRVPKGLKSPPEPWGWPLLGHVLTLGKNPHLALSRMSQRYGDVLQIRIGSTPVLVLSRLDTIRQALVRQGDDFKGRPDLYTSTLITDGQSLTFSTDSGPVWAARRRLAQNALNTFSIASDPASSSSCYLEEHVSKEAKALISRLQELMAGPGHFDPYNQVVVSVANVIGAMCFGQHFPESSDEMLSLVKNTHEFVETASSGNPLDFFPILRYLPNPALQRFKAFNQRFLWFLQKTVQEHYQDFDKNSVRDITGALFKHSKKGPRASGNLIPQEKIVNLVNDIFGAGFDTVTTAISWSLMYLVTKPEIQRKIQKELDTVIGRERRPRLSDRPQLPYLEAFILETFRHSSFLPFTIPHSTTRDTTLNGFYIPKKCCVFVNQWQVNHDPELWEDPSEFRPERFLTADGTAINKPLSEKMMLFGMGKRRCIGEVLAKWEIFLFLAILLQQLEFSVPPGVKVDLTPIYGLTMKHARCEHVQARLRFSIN

[9] = inhibitors of SNCA 5'UTR-driven reporter translation, confirmation, H4 neuroglioma cells, luminescence (AID 1988); assay type: functional, cell-based
[10] = Luminescence Cell-Based Dose Response HTS to Identify Inhibitors of 5'UTR Stem-Loop Driven Prion Protein mRNA Translation in H4 Neuroglioblastoma Cells. [Related pubchem assays: 1827 (Project Summary), 1813 (Primary HTS)]; assay type: functional
[11] = inhibitors of firefly luciferase expression or activity, dose response, H4 neuroglioma cells, luminescence (AID 1990); assay type: functional, cell-based
[12] = target: Genome polyprotein (dengue virus type 2, UniProt P29990); test: Dengue-2 NS5 methyltransferase inhibitors, primary screen, biochemical, confirmation dose response (AID 588689); assay type: functional
[13] = target: FAD-linked sulfhydryl oxidase ALR (Homo sapiens, UniProt P55789); test: inhibitors of human ALR sulfhydryl oxidase, dose response, biochemical, H2O2 detection, luminescence, cherry-pick (AID 493248)
[14] = target: Large T antigen (Simian virus 40, UniProt P03070); assay type: functional, Betapolyomavirus macacae;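 also: Confirmatory-stage PubChem screen for compounds that inhibit SV40 T antigen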
[15] = C. albicans growth with fluconazole, confirmation, fluorescence, retest (AID 2467); assay type: functional, cell-based
[16] = NIH-3T3 fibroblast cytotoxicity, dose response, cytotoxicity control, cell-based, fluorescence, Alamar Blue, secondary assay (AID 2327); assay type: functional;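 also: NIH-3T3 mouse fibroblasts cultured with fluconazole at 8 µg/mL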
[17] = inhibitors of clade B AD8 Env fusion, dose response, cell-based, cherry-pick (AID 652062); assay type: functional;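 also: luciferase signal from cell-cell fusion driven by HIV-1 clade B AD8 Env; potency is for inhibitors of fusion seen as a drop in luminescence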
[18] = inhibitors of HIV Env-driven cell fusion, dose response, cherry-pick (AID 652057); assay type: functional, cell-based
[19] = target: Cytochrome P450 2C19 (Homo sapiens, UniProt P33261); test: Cytochrome panel assay with activity outcomes. Panel member name: p450-cyp2c19 Compounds with AC50 equal or less than 10 uM are considered active; assay type: functional; details: read-out: AC50
[20] = Luminescence Cell-Based Dose Confirmation HTS to Identify Inhibitors of Platelet Dense Granule Release. [Related pubchem assays: 1663 (Primary HTS), 1678 (Summary of Project)]; assay type: functional
[21] = target: Luciferin 4-monooxygenase (Photinus pyralis, UniProt P08659); test: firefly luciferase enzyme inhibitors, dose response, biochemical, luminescence (AID 1891)
[22] = target: T4, Streptokinase A (Streptococcus pyogenes serotype M1, UniProt P10520); test: S. pyogenes streptokinase expression inhibitors, potency, dose response, plasminogen activation absorbance, OD405 (AID 1914); assay type: functional, Streptococcus pyogenes M1 GAS;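 also: secreted streptokinase activity via plasminogen activation per viability signal from cell pellet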
T4 sequence (P10520 whole entry): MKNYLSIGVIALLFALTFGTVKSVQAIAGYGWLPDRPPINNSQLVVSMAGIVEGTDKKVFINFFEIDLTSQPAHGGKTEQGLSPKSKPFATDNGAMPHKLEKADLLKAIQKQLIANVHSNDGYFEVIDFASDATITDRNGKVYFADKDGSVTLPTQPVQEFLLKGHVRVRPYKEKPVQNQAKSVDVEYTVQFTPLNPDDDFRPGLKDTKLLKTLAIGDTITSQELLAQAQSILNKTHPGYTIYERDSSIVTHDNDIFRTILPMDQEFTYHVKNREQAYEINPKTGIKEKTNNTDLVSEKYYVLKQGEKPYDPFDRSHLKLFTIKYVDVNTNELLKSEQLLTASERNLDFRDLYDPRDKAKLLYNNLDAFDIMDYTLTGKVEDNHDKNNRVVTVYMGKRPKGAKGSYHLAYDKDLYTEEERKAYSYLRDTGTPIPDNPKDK

[23] = cells; assay type: functional
[24] = system: Streptococcus; test: Group A Streptococcus viability loss, dose response, counter-screen for streptokinase expression inhibitor project, luminescence, BacTiterGlo (AID 1915); assay type: functional, organism-based;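 also: potency for reduction of bacterial viability or growth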
[25] = system: Streptococcus sp. 'group A'; test: growth inhibition of control SK(-) GAS strain, dose response, counter-screen for streptokinase expression inhibitor project, luminescence, kanamycin, BacTiterGlo, confirmation (AID 1900); assay type: functional, organism-based
[26] = target: Cytochrome P450 3A4 (Homo sapiens, UniProt P08684);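 also: CYP3A4 tested as one member of a cytochrome P450 panel screen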

T1 sequence (P49327 whole entry, the tested form may be a part): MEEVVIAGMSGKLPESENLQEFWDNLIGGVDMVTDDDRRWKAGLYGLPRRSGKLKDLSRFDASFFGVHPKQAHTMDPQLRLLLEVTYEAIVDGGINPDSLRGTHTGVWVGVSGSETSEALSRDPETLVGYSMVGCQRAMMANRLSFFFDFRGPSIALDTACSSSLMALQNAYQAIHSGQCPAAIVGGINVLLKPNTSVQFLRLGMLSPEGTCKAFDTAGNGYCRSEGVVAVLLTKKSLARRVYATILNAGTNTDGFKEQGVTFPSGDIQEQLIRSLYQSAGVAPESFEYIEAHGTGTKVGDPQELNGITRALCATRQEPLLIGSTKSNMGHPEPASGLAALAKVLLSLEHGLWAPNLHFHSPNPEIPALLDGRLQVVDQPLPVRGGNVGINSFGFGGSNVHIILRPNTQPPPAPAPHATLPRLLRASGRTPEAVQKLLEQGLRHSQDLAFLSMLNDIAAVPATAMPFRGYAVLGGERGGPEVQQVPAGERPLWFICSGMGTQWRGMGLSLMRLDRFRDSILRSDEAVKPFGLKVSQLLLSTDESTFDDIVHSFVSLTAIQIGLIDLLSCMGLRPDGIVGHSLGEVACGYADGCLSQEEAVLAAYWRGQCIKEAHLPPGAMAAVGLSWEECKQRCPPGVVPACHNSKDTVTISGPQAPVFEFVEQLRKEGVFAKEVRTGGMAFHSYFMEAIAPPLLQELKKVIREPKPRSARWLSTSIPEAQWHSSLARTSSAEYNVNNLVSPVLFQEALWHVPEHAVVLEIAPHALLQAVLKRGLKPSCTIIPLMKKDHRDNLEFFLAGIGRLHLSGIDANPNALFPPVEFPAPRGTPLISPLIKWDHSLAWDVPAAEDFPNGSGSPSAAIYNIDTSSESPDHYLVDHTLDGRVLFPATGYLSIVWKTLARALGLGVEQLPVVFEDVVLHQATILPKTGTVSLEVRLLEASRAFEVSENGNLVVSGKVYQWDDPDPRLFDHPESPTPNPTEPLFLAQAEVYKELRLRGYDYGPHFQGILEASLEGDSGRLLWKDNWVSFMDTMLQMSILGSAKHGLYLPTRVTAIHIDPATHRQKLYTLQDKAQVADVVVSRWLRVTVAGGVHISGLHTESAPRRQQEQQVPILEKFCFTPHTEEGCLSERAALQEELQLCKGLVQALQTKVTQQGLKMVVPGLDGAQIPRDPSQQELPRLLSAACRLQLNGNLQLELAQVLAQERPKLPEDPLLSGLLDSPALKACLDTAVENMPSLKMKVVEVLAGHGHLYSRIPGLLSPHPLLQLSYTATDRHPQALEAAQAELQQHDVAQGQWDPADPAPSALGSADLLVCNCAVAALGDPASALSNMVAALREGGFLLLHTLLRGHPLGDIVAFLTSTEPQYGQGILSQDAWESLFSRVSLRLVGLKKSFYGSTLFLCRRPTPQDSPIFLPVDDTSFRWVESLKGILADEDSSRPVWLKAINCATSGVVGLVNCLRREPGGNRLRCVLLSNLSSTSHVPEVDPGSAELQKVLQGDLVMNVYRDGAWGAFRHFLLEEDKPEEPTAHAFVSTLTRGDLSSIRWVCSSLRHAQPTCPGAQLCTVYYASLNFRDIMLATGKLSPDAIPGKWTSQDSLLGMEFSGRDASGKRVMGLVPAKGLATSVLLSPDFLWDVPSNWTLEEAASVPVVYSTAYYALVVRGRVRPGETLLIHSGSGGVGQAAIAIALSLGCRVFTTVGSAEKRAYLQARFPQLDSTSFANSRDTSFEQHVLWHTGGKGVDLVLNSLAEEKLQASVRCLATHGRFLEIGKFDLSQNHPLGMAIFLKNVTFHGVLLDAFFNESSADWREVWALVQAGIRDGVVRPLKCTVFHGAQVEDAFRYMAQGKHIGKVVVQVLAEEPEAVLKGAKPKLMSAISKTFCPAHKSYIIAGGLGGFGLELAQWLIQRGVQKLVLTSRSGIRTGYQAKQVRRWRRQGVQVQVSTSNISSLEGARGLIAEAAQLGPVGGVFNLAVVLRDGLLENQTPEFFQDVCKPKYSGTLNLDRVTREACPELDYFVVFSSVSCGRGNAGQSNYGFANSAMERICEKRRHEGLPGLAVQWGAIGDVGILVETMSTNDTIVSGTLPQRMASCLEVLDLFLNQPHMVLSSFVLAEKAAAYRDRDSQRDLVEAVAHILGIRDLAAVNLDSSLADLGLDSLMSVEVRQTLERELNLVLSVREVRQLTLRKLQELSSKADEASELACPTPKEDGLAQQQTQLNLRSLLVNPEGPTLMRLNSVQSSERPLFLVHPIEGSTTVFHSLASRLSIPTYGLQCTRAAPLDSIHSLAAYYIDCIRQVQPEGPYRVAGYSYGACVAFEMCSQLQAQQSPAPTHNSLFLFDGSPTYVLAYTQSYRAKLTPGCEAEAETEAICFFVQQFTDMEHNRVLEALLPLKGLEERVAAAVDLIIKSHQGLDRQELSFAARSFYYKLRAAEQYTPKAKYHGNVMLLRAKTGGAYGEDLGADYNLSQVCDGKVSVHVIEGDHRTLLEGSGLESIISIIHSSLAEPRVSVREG
Chain of Cytochrome P450 2C9 (P11712 whole entry): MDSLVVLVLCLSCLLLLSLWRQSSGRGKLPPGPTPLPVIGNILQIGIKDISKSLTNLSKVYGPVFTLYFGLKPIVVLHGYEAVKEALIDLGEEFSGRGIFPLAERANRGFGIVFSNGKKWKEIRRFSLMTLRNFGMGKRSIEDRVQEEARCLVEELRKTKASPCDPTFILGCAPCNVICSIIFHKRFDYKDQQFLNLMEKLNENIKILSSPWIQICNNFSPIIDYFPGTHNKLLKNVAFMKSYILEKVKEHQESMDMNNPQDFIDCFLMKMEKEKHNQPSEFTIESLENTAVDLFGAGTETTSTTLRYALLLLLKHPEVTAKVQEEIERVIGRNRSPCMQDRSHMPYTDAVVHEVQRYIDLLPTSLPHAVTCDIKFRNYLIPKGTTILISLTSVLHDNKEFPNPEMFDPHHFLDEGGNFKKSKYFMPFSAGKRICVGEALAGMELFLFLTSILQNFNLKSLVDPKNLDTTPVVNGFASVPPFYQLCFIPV
Chain of Luciferin 4-monooxygenase (P08659 whole entry): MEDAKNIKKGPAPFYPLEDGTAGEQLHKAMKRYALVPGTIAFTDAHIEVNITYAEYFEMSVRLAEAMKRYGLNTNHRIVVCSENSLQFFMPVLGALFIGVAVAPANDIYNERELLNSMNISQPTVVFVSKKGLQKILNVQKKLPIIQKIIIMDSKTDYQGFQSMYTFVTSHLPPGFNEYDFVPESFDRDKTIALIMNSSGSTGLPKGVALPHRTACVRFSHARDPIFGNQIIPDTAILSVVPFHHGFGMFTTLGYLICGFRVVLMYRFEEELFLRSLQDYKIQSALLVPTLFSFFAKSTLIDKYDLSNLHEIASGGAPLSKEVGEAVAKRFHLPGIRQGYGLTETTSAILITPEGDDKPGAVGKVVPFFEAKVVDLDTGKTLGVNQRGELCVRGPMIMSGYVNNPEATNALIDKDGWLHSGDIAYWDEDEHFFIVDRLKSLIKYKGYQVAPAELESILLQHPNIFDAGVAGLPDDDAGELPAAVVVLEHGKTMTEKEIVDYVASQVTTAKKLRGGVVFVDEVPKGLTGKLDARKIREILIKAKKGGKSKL
Chain of Cytochrome P450 2D6 (P10635 whole entry): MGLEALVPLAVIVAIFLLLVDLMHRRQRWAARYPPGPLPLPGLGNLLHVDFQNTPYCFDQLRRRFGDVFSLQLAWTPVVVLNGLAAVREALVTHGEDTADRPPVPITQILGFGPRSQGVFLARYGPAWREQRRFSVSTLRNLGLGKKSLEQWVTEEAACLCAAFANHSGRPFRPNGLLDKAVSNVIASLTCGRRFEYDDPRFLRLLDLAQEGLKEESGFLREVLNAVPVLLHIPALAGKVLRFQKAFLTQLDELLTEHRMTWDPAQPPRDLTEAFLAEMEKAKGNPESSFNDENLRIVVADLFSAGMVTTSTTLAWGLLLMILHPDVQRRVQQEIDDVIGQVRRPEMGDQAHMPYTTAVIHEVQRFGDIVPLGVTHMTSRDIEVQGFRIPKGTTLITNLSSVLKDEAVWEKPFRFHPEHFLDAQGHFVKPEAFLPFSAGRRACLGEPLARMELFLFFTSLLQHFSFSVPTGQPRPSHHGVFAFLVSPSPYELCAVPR
Chain of Large T antigen (P03070 whole entry): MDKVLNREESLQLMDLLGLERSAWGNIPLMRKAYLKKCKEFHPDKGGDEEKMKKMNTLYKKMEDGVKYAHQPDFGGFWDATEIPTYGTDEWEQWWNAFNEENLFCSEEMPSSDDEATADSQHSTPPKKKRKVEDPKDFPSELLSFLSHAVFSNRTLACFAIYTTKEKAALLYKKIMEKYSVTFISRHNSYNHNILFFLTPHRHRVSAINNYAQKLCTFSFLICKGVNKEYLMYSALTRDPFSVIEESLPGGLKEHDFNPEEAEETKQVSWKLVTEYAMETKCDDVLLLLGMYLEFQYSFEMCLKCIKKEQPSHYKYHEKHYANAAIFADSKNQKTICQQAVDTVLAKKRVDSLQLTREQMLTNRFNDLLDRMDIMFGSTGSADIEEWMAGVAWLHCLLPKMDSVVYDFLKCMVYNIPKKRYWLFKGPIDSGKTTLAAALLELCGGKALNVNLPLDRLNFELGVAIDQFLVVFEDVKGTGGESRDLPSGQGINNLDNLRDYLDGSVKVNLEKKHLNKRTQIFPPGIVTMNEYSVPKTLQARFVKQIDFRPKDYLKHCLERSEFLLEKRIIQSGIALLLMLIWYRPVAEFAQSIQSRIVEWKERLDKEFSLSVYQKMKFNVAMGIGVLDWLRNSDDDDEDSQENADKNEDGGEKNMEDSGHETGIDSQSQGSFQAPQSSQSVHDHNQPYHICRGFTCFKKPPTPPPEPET
Chain of FAD-linked sulfhydryl oxidase ALR (P55789 whole entry): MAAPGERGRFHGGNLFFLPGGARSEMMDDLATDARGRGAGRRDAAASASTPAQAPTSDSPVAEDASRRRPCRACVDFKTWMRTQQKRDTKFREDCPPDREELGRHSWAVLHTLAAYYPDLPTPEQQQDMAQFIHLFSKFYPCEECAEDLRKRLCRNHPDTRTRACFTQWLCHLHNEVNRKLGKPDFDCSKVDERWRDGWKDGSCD

SMILES: CC1CCCC(C)N1C(=O)COC(=O)c1cc([N+](=O)[O-])ccc1N1CCOCC1 (stereo not given)
- IC50 [1]: 7.31 µM (active)
- IC50 [2]: 9.93 µM (active)

SMILES: CN(CC1CCCO1)S(=O)(=O)c1ccc(C(=O)Nc2nccs2)cc1 (stereo not given)
- EC50 [3]: > 350 µM (not active)
- EC50 [4]: > 350 µM (not active)

SMILES: O=C(Cn1ncc(Cl)c(Cl)c1=O)NC1CCS(=O)(=O)C1 (stereo not given)
- IC50 [5]: 8.49 µM (active)

SMILES: COc1ccc(S(=O)(=O)N2CCN(CC(=O)Nc3cccc(F)c3)CC2)cc1
- AC50 [6]: inconclusive
- AC50 [7]: 25.1 µM (inconclusive)
- AC50 [8]: 0.0794 µM (inconclusive)

SMILES: Cc1ccc(C(=O)N/N=C/c2cc(C)n(-c3ccc(Br)cc3)c2C)cc1[N+](=O)[O-]
- AC50 [6]: inconclusive
- EC50 [9]: 16.7 µM (active)
- EC50 [10]: 17.4 µM (active)
- EC50 [11]: 11.2 µM (active)

SMILES: O=C1NN(c2ccccc2)C(=O)/C1=C/c1ccc(-c2cccc(C(=O)O)c2)o1
- IC50 [12]: 30.6 µM (active)
- AC50 [13]: 0.228 µM (active)
- IC50 [5]: 11 µM (active)
- IC50 [14]: 24.3 µM (active)

SMILES: N=C1/C(=C\c2ccc(Br)o2)C(=O)N=C2SC(CC(=O)N3CCCCC3)=NN12
- IC50 [5]: 26.7 µM (active)
- IC50 [14]: > 100 µM (active)

SMILES: CCOC(=O)/C(=N\Nc1cccc(C(F)(F)F)c1)N1CCOCC1
- EC50 [3]: 320 µM (active)
- EC50 [15]: > 38 µM (not active)
- EC50 [4]: > 350 µM (not active)
- EC50 [16]: > 160 µM (inconclusive)

SMILES: O=C(NCC1CCCO1)c1cc(-c2ccc(F)cc2)no1 (stereo not given)
- EC50 [3]: > 350 µM (not active)
- EC50 [4]: 143 µM (active)

SMILES: C[C@H](CO)N1C[C@H](C)[C@H](CN(C)S(=O)(=O)c2cccs2)Oc2ccc(NC(=O)NC3CCCCC3)cc2CC1=O
- AC50 [17]: 3.49 µM (active)
- AC50 [18]: 1.19 µM (active)

SMILES: C[n+]1ccccc1C1CCCC/C1=N\NC(N)=S (stereo not given)
- IC50 [5]: 5.71 µM (active)

SMILES: CC(C)C(=O)c1c(C(C)C)nn2ccccc12 [IBUDILAST]
- AC50 [19]: 3.16 µM (inconclusive)
- AC50 [6]: inconclusive

SMILES: COCCNC(=O)CSc1nc(-c2ccc(OC)c(OC)c2)cc(C(F)(F)F)n1
- EC50 [20]: > 112 µM (not active)
- EC50 [21]: > 112 µM (not active)

SMILES: O=C(Nc1nnc(-c2ccc(Br)cc2)o1)c1ccco1
- EC50 [22]: > 150 µM (not active)
- IC50 [23]: 3.95 µM (active)
- EC50 [24]: 13.7 µM (active)
- EC50 [25]: 3.78 µM (active)

SMILES: COc1ccc(S(=O)(=O)NCCC(=O)NCc2ccc(F)cc2)cc1
- AC50 [6]: inconclusive
- AC50 [7]: 50.1 µM (inconclusive)
- AC50 [26]: 28.2 µM (inconclusive)

SMILES: CC(/C=C/c1ccc(Cl)o1)=C\C(=O)O
- EC50 [20]: > 112 µM (not active)
- EC50 [21]: > 112 µM (not active)

SMILES: COc1ccc2c(c1)c(=O)oc1c(C)c(OC(C)C(=O)N[C@@H](Cc3c[nH]c4ccc(O)cc34)C(=O)O)ccc12 (stereo not given in full)
- IC50 [5]: 6.88 µM (active)

SMILES: COc1ccc(/C=C(\NC(=O)c2ccc([N+](=O)[O-])cc2)C(=O)NCCCn2ccnc2)cc1
- IC50 [1]: 2.35 µM (active)
- IC50 [2]: 3.01 µM (active)

SMILES: COc1ccc(N/C=C\C(=O)c2ccc3c(c2)OCO3)cc1
- EC50 [3]: 4.39 µM (active)
- EC50 [4]: > 350 µM (not active)
